What was measured:
[1] = system: C. elegans
Description: (§1) Measurement of Reactive Oxygen Species. Superoxide concentration was measured by dihydroethidium (DHE). Black clear bottom 96 well plates were seeded with about 5000 HEK293 tau aggregate-negative (control) and aggregate-positive model cells per well and about 20000 SH-SY5Y cells (the NRF2 knockdown of both cell lines were also seeded). […] Fluorescence was measured by Spectramax Gemini XPS plate reader (Molecular Devices, Sunnyvale, Calif.) at 370 nm excitation and 420 nm emission wavelengths. […] Equal number of animals were transferred to a black bottom 96 well plate and fluorescence was measured same as above.

[2] = system: HeLa cells expressing EGFP-HD103Q; conditions: 48 hours
Description: The fraction of EGFP-positive cells expressing aggregates under different conditions were plotted as odds ratios taking Ctrl value as 1. Error bars show 95% confidence interval. […] Error bars show SD.

[3] = system: GSK3β and Tau
Description: The data represents as percent cell viability normalized to DMSO treated control cells. The values are mean percent of two biological experiments performed in six replicates. […] After treatment Western blot analysis was performed to check the levels of p-GSK3β and total GSK3β in addition to p-Tau and total Tau level. […] Densitometry values were normalized using actin as internal control. All western blot analysis (FIG. 19B, 19C) values are mean±SD from three biological independent experiments (shown in the right panel).
To mimic the cellular environment of AD disease a stable HEK293 cell line (HEKTauP301S) overexpressing mutated full length Tau (P301S) was used.

[4] = system: Nrf2 transcriptional activity (ARE)
Description: (§2) Trx1 reduces the cysteine residues critical for binding of Nrf2 to AREs (Hansen et al., 2004).
Nrf2 Transcriptional Activity Assay. The transcriptional activity of Nrf2 was determined using a luciferase-based transcription activation approach. A vector carrying a […] controlled luciferase gene (firefly luciferase) and a vector carrying the control luciferase (Renilla luciferase) from an ARE reporter kit (BPS Bioscience, San Diego, Calif.) was transiently co-transfected into the cells using Lipofectamine reagents (Thermo Fisher, Waltham, Mass.). […] Briefly, the cells were incubated with firefly luciferase substrate for 10 minutes prior to measurement luminescence in a 96-well luminescence plate reader. Subsequently, the Renilla luciferase was measured after the addition of Dual-Glo Stop & Glo reagent into the wells with a 10-minute incubation. The ratio of luminescence from firefly and Renilla was calculated to normalize and compare the Nrf2 transcriptional activity.

[5] = system: SH-SY5Y cells; assay: Protein carbonyl assay (2,4-DNPH) in H2O2-stressed cells; assay type: cell-based, human; conditions: 100 μM H2O2 24 h, 10 and 25 μM compound
Description: To generate intracellular aldehydes, the inventors treated human neuroblastoma cell line (SH-SY5Y) with 100 μM hydrogen peroxide (H2O2) for 24 h. Carbonyl groups were quantified using 2,4-DNPH (dinitrophenylhydrazine) assay.
Protein carbonyl Assay. Protein carbonyls were measured using a commercially available kit (MAK094; Sigma-Aldrich, St. Louis, Mo.). Cells were first lysed in lysis buffer provided by the kit.
Following centrifugation, 100 μL of supernatant was added to 10 μL of 10% […] solution, was incubated at room temperature for 10 min and re-centrifuged to remove interfering nucleic acids. Carbonyl content of supernatant was determined by adding 2, 4-dinatrophenylhydrazine followed by detection of dinitrophenyl hydrazine adduct at 375 nm in a 96 well plate reader. The protein content of each sample was determined using a bicinchoninic acid (BCA) assay, Thermo Fischer, Waltham, Mass.).

[6] = system: HEK293 tau aggregate-negative and aggregate-positive cells
Description: The inventors first measured the cell proliferation to evaluate the stress caused by expression of tau fibrils in aggregate-positive and negative cells (FIG. 6A). […] The inventors also measured the concentration of superoxide ions (O2-), a detrimental byproduct of oxidative phosphorylation, as an ROS representative. […] The inventors next measured expression of Nrf2 and HO-1 in the same cells (FIG. 6C). […] Aggregate-positive and -negative KD cells were treated with 200 μM H2O2 for 24 h. Cytotoxicity was measured as release of LDH.
as §1

[7] = system: thioredoxin 1 (Trx1); conditions: SH-SY5Y, after 24 h and 48 h
Description: as §2
Western Blot Analysis. Protein expression was determined by Western blot analysis. Equal amount of protein from each sample was run in Tris-glycine SDS PAGE gel, followed by transferring to PVDF membrane. After blocking the membrane with 5% milk for 1 hour at room temperature, the membrane was incubated further for 2 hours with antibodies specific for target proteins: Nrf2, pNrf2(S40) from Novus (Littleton, Colo.); Keap1, HO-1, NQO1, GCLc, GCLm and lamin B1 from Cell Signaling (Danvers, Mass.); GAPDH from Santa Cruz (Dallas, Tex.); β-Actin from Thermo Fisher (Waltham, Mass.). The membrane was subsequently incubated with species-specific HRP-conjugated secondary antibody followed by incubation with chemiluminescence substrate and imaging. The band intensity of each of the target proteins was quantified using ImageQuant software (GE Healthcare, Sweden). Western blot analysis on worm lystaes was done similarly. […] Equal amounts of protein were run on the gel and SKN-1 protein level was detected using anti-GFP antibody.

[8] = system: MEF cells; conditions: 10 μM, 24 and 48 hours
Description: Cells were then subjected to confocal analysis and mRFP-GFP (yellow representing autophagosome) and mRFP (red puncta representing autophagolysosomes) were recorded; scale bar, 10 gtm. […] The co-localization of mRFP with GFP signal from tfLC3 puncta was measured using ImageJ software.
To further validate the present invention autophagic flux using mRFP-GFP tandem fluorescent-tagged LC3 (tfLC3) was measured. tfLC3 protein is one of the most widely used markers for the detection of autophagosomes and autophagolysosomes, two key structures in macroautophagy (8). tfLC3 was knocked-in to monitor autophagic flux in MEF cells based on different pH stabilities of GFP and mRFP (9). In autophagosome environment both mRFP and GFP tags of tfLC3 can fluoresce so autophagosome appear as yellow puncta (green GFP+red mRFP). […] Rapamycin was used as a positive control.

[9] = system: PC12 cells expressing EGFP-HDQ74
Description: Transgene expression was induced with doxycycline for 8 hours, and then switched off (by removing doxycycline). […] The fraction of EGFP-positive cells expressing aggregates under different conditions were plotted as odds ratios taking Ctrl value as 1. Error bars show 95% confidence interval. […] The fraction of EGFP-positive cells with aggregates were plotted as odds ratios taking Ctrl value as 1. Error bars show 95% confidence interval. […] Rapamycin ([…]) was used as positive control. Right panel is densitometry analysis of EGFP-HDQ74 level normalized to actin. Error bars show SD. […] The fraction of EGFP-positive cells expressing aggregates were plotted as odds ratios taking Ctrl value as 1. Error bars show 95% confidence interval.
To investigate the clearance of HDQ74 (74 repeats of poly Q), the inventors used a stable doxycycline-inducible PC12 cell line expressing EGFP-tagged HDQ74 in which transgene expression were induced by doxycycline addition to the cell media and switched off by doxycycline removal. […] Rapamycin, a known autophagy inducer, was used as positive controls.

[10] = HEKTauP301S, 500 nM Aβ (1-42), 10 μM, 24 hours

NNc1nncc2ccccc12 [Hydralazine]
superoxide concentration in N2 worms [1]: decreased superoxide concentration | EGFP-HD103Q poly Q aggregates [2]: disappearance of higher order poly Q aggregates | phosphorylation level of GSK3β in control HEK293 cells ([3]; HEKT293 cells as control): not able to detect a significant upregulation | Aβ-induced Tau phosphorylation [3, 10]: inhibits Aβ-induced Tau phosphorylation | phosphorylation of GSK3β [3, 10]: upregulates the phosphorylation of GSK3β | ARE binding elevation ([4]; SH-SY5Y): 2 fold | luciferase activity compared to untreated cells ([4]; SH-SY5Y with ARE-luciferase reporter, 24 h, both concentrations): 2.0±0.2 folds | protein carbonyls [5]: significantly reduced the carbonyl level | protein carbonyls ([5]; listed as hydralazine): reduced protein carbonyls significantly | concentration of O2− ions in aggregate-positive KD cells ([6]; Nrf2 knockdown): No significant change | concentration of superoxide ([6]; aggregate-positive and -negative cells, 24 h): decreased in a dose-dependent manner | increase of the amount of Trx1 [7]: 25% | autophagic flux (autophagosomes, autophagolysosomes) [8]: induction of autophagic flux | poly Q aggregates (Western blot, EGFP tag) [9]: efficient removal of poly Q aggregates | EGFP-HDQ74 aggregates (confocal) ([9]; 10 μM, 48 hours): significantly reduced | clearance of Poly Q aggregates after 3-MA and bafilomycin ([9]; 5 mM 3-MA, 20 nM bafilomycin): abrogated | EGFP-HDQ74 aggregates in ATG5 knock-down cells ([9]; ATG5 shRNA): failed to clear
